Results from US10093664B2, “Bicyclo[1.1.1]pentane inhibitors of dual leucine zipper (DLK) kinase for the treatment of disease” (priority 2016, dated 2018).

Tests used:
human DLK [1] = target: T1, human DLK (Homo sapiens (Human), UniProt Q12852); test: cell-based; conditions: Table 2b (global); additional assay runs on multiple batches, includes Table 2a data in the averaging; p-cJun (Ser63), HEK293; read-out: Cell IC50
Method: HEK293 cells stably transfected with a Dox-inducible human DLK were plated into a 384-well plate in 20 μl (40,000 cells/well) of DMEM medium (without phenol red) containing 10% fetal bovine serum, 1.5 μg/ml doxycycline and 1 μg/ml puromycin. The cells as negative control were grown in the absence of doxycycline. The plate was incubated at 37° C., 5% CO2 for 20 h, before DMSO (control) or compounds diluted in medium were added. The cells were incubated at 37° C. for an additional 5 h, followed by lysis and the addition detection antibodies from p-cJun (Ser63) cellular assay kit (Cisbio) per manufacturer protocol. The standard dose response curves were fitted by Genedata Screener software using the variable-slope model: Signal=Signalnegative control+(SignalDMSO control−Signalnegative control)/(1+(IC50/Dose)^Hill slope). Only signal and dose in the equation were treated as known values.

human DLK [2] = target: T1, human DLK; test: biochemical; assay type: binding; conditions: Table 2b DLK activity (global); read-out: Kd
Method: The DLK dissociation constants (Kd) have been determined in the KINOMEscan KdELECT Service at DiscoveRx.
A fusion protein of full length of human DLK (amino acids 1-859) and the DNA binding domain of NFkB was expressed in transiently transfected HEK293 cells. From these HEK 293 cells, extracts were prepared in M-PER extraction buffer (Pierce) in the presence of Protease Inhibitor Cocktail Complete (Roche) and Phosphatase Inhibitor Cocktail Set II (Merck) per manufacturers' instructions. The DLK fusion protein was labeled with a chimeric double-stranded DNA tag containing the NFkB binding site (5′-[sequence]-3′) fused to an amplicon for qPCR readout, which was added directly to the expression extract (the final concentration of DNA-tag in the binding reaction is 0.1 nM).
The liganded beads were blocked with excess biotin and washed with blocking buffer (SeaBlock (Pierce), 1% BSA, 0.05% Tween 20, 1 mM DTT) to remove unbound ligand and to reduce nonspecific binding.
Extracts were used directly in binding assays without any enzyme purification steps at a ≥10,000-fold overall stock dilution (final DNA-tagged enzyme concentration <0.1 nM). Extracts were loaded with DNA-tag and diluted into the binding reaction in a two step process. First extracts were diluted 1:100 in 1× binding buffer (PBS/0.05% Tween 20/10 mM DTT/0.1% BSA/2 μg/ml sonicated salmon sperm DNA) containing 10 nM DNA-tag. This dilution was allowed to equilibrate at room temperature for 15 minutes and then subsequently diluted 1:100 in 1× binding buffer. Test compounds were prepared as 111× stocks in 100% DMSO. Kds were determined using an 11-point 3-fold compound dilution series with three DMSO control points. […] The compounds were then diluted directly into the assays such that the final concentration of DMSO was 0.9%. All reactions performed in polypropylene 384-well plates. Each was a final volume of 0.02 mL. Assays were incubated with shaking for 1 hour at room temperature. Then the beads were pelleted and washed with wash buffer (1×PBS, 0.05% Tween 20) to remove displaced kinase and test compound. […] The kinase concentration in the eluates was measured by qPCR. qPCR reactions were assembled by adding 2.5 μL of kinase eluate to 7.5 μL of qPCR master mix containing 0.15 μM amplicon primers and 0.15 μM amplicon probe. The qPCR protocol consisted of a 10 minute hot start at 95° C., followed by 35 cycles of 95° C. for 15 seconds, 60° C. for 1 minute.
Test compounds were prepared as 11× stocks in 100% DMSO. Kds were determined using an 11-point 3-fold compound dilution series with three DMSO control points. […] The compounds were then diluted directly into the assays such that the final concentration of DMSO was 0.9%. The Kds were determined using a compound top concentration of 30,000 nM. Kd measurements were performed in duplicate.
Binding constants (Kds) were calculated with a standard dose-response curve using the Hill equation:
The Hill Slope was set to −1.

Compound	IC50 (human DLK [1])	Kd (human DLK [2])
C[C@H](O)c1nc(-c2cnc(N)c(C(F)(F)F)c2)cn1C12CC(C1)C2 [Example 33, (S)-1-(4-(6-amino-5-(trifluoromethyl)pyridin-3-yl)-1-(bicyclo[1.1.1]pentan-1-yl)-1H-imidazol-2-yl)ethan-1-ol]	207 nM	9.7 nM
Nc1ncc(-c2cn(C34CC(N5CCOCC5)(C3)C4)c(CC3CC3)n2)cc1OC(F)F [Example 36, 5-(2-(cyclopropylmethyl)-1-(3-morpholinobicyclo[1.1.1]pentan-1-yl)-1H-imidazol-4-yl)-3-(difluoromethoxy)pyridin-2-amine]	500 nM	22 nM
Nc1ncc(-c2cn(C34CC(N5CCOCC5)(C3)C4)c(C3CC3)n2)cc1OC(F)F [Example 37, 5-(2-cyclopropyl-1-(3-morpholinobicyclo[1.1.1]pentan-1-yl)-1H-imidazol-4-yl)-3-(difluoromethoxy)pyridin-2-amine]	351 nM	19 nM
CC(C)c1nc(-c2cnc(N)c(OC(F)F)c2)cn1C12CC(N3CCOCC3)(C1)C2 [Example 38, 3-(difluoromethoxy)-5-(2-isopropyl-1-(3-morpholinobicyclo[1.1.1]pentan-1-yl)-1H-imidazol-4-yl)pyridin-2-amine]	709 nM	19 nM
CC(C)(C)Cc1nc(-c2cnc(N)c(OC(F)(F)F)c2)cn1C12CC(N3CCOCC3)(C1)C2 [Example 39, 5-(1-(3-morpholinobicyclo[1.1.1]pentan-1-yl)-2-neopentyl-1H-imidazol-4-yl)-3-(trifluoromethoxy)pyridin-2-amine]	4040 nM	210 nM
CC(C)(C)Cc1nc(-c2cnc(N)c(C(F)(F)F)c2)cn1C12CC(N3CCOCC3)(C1)C2 [Example 40, 5-(1-(3-morpholinobicyclo[1.1.1]pentan-1-yl)-2-neopentyl-1H-imidazol-4-yl)-3-(trifluoromethyl)pyridin-2-amine]	2460 nM	66 nM
Nc1ncc(-c2cn(C34CC(N5CCOCC5)(C3)C4)c(C3CCC3)n2)cc1OC(F)(F)F [Example 43, 5-(2-cyclobutyl-1-(3-morpholinobicyclo[1.1.1]pentan-1-yl)-1H-imidazol-4-yl)-3-(trifluoromethoxy)pyridin-2-amine]	598 nM	32 nM
Nc1ncc(-c2cn(C34CC(N5CCOCC5)(C3)C4)c(C3CCCC3)n2)cc1OC(F)(F)F [Example 44, 5-(2-cyclopentyl-1-(3-morpholinobicyclo[1.1.1]pentan-1-yl)-1H-imidazol-4-yl)-3-(trifluoromethoxy)pyridin-2-amine]	841 nM	53 nM
CC(C)Cc1nc(-c2cnc(N)c(OC(F)(F)F)c2)cn1C12CC(N3CCOCC3)(C1)C2 [Example 45, 5-(2-isobutyl-1-(3-morpholinobicyclo[1.1.1]pentan-1-yl)-1H-imidazol-4-yl)-3-(trifluoromethoxy)pyridin-2-amine]	761 nM	15 nM
CC(C)Cc1nc(-c2cnc(N)c(C(F)(F)F)c2)cn1C12CC(N3CCOCC3)(C1)C2 [Example 47, 5-(2-isobutyl-1-(3-morpholinobicyclo[1.1.1]pentan-1-yl)-1H-imidazol-4-yl)-3-(trifluoromethyl)pyridin-2-amine]	655 nM	6 nM
Nc1ncc(-c2cn(C34CC(N5CCOCC5)(C3)C4)c(CC(F)(F)F)n2)cc1OC(F)(F)F [Example 48, 5-(1-(3-morpholinobicyclo[1.1.1]pentan-1-yl)-2-(2,2,2-trifluoroethyl)-1H-imidazol-4-yl)-3-(trifluoromethoxy)pyridin-2-amine]	413 nM	13 nM
CCC(C)c1nc(-c2cnc(N)c(OC(F)(F)F)c2)cn1C12CC(N3CCOCC3)(C1)C2 (stereo not shown) [Example 49, 5-(2-(sec-butyl)-1-(3-morpholinobicyclo[1.1.1]pentan-1-yl)-1H-imidazol-4-yl)-3-(trifluoromethoxy)pyridin-2-amine]	290 nM	8.6 nM
CCC(C)c1nc(-c2cnc(N)c(OC(F)F)c2)cn1C12CC(N3CCOCC3)(C1)C2 (stereo not shown) [Example 51, 5-(2-(sec-butyl)-1-(3-morpholinobicyclo[1.1.1]pentan-1-yl)-1H-imidazol-4-yl)-3-(difluoromethoxy)pyridin-2-amine]	763 nM	21 nM
CC(C)c1nc(-c2cnc(N)c(C(F)(F)F)c2)cn1C12CC(C1)C2 [Example 52, 5-(1-(bicyclo[1.1.1]pentan-1-yl)-2-isopropyl-1H-imidazol-4-yl)-3-(trifluoromethyl)pyridin-2-amine]	850 nM	49 nM
CCC(O)c1nc(-c2cnc(N)c(OC(F)(F)F)c2)cn1C12CC(C1)C2 (stereo not shown) [Example 54, 1-(4-(6-amino-5-(trifluoromethoxy)pyridin-3-yl)-1-(bicyclo[1.1.1]pentan-1-yl)-1H-imidazol-2-yl)propan-1-ol]	319 nM	11 nM
CC(O)c1nc(-c2cnc(N)c(OC(F)(F)F)c2)cn1C12CC(C1)C2 (stereo not shown) [Example 55, 1-(4-(6-amino-5-(trifluoromethoxy)pyridin-3-yl)-1-(bicyclo[1.1.1]pentan-1-yl)-1H-imidazol-2-yl)ethan-1-ol]	443 nM	14 nM
Nc1ncc(-c2cn(C34CC(C3)C4)c(C(O)C3CC3)n2)cc1OC(F)(F)F (stereo not shown) [Example 56, (4-(6-amino-5-(trifluoromethoxy)pyridin-3-yl)-1-(bicyclo[1.1.1]pentan-1-yl)-1H-imidazol-2-yl)(cyclopropyl)methanol]	275 nM	5.1 nM
CC(C)C(O)c1nc(-c2cnc(N)c(OC(F)(F)F)c2)cn1C12CC(C1)C2 (stereo not shown) [Example 57, 1-(4-(6-amino-5-(trifluoromethoxy)pyridin-3-yl)-1-(bicyclo[1.1.1]pentan-1-yl)-1H-imidazol-2-yl)-2-methylpropan-1-ol]	38.6 nM	0.62 nM
Nc1ncc(-c2cn(C34CC(C3)C4)c(CO)n2)cc1C(F)(F)F [Example 58, (4-(6-amino-5-(trifluoromethyl)pyridin-3-yl)-1-(bicyclo[1.1.1]pentan-1-yl)-1H-imidazol-2-yl)methanol]	846 nM	18 nM
CC(C)C(O)c1nc(-c2cnc(N)c(C(F)(F)F)c2)cn1C12CC(C1)C2 (stereo not shown) [Example 59, 1-(4-(6-amino-5-(trifluoromethyl)pyridin-3-yl)-1-(bicyclo[1.1.1]pentan-1-yl)-1H-imidazol-2-yl)-2-methylpropan-1-ol]	20.9 nM	0.29 nM
CCC(O)c1nc(-c2cnc(N)c(C(F)(F)F)c2)cn1C12CC(C1)C2 (stereo not shown) [Example 61, 1-(4-(6-amino-5-(trifluoromethyl)pyridin-3-yl)-1-(bicyclo[1.1.1]pentan-1-yl)-1H-imidazol-2-yl)propan-1-ol]	167 nM	2.1 nM
Nc1ncc(-c2cn(C34CC(N5CCOCC5)(C3)C4)c(C=O)n2)cc1OC(F)(F)F [Example 66, 4-(6-amino-5-(trifluoromethoxy)pyridin-3-yl)-1-(3-morpholinobicyclo[1.1.1]pentan-1-yl)-1H-imidazole-2-carbaldehyde]	1400 nM	44 nM
CN1CCN(C23CC(n4cc(-c5cnc(N)c(OC(F)(F)F)c5)nc4CC4CC4)(C2)C3)CC1 [Example 72, 5-(2-(cyclopropylmethyl)-1-(3-(4-methylpiperazin-1-yl)bicyclo[1.1.1]pentan-1-yl)-1H-imidazol-4-yl)-3-(trifluoromethoxy)pyridin-2-amine]	1160 nM	19 nM
CN1CCN(C23CC(n4cc(-c5cnc(N)c(OC(F)F)c5)nc4CC4CC4)(C2)C3)CC1 [Example 73, 5-(2-(cyclopropylmethyl)-1-(3-(4-methylpiperazin-1-yl)bicyclo[1.1.1]pentan-1-yl)-1H-imidazol-4-yl)-3-(difluoromethoxy)pyridin-2-amine]	624 nM	18 nM
CC(C)c1nc(-c2cnc(N)c(OC(F)(F)F)c2)cn1C12CC(N3CCN(C)CC3)(C1)C2 [Example 74, 5-(2-isopropyl-1-(3-(4-methylpiperazin-1-yl)bicyclo[1.1.1]pentan-1-yl)-1H-imidazol-4-yl)-3-(trifluoromethoxy)pyridin-2-amine]	196 nM	4.5 nM
CN1CCN(C23CC(n4cc(-c5cnc(N)c(C(F)(F)F)c5)nc4C4CC4)(C2)C3)CC1 [Example 75, 5-(2-cyclopropyl-1-(3-(4-methylpiperazin-1-yl)bicyclo[1.1.1]pentan-1-yl)-1H-imidazol-4-yl)-3-(trifluoromethyl)pyridin-2-amine]	256 nM	7.5 nM
